Test: Photostability of oily-solution films under solar simulator irradiation, quantified by HPLC
Format: physicochemical
Conditions: 2% by weight in the oil Miglyol 812, film on ground glass; irradiated one hour with Oriel solar simulator (UV-A=14.2 mW/cm^2; UV-B=0.41 mW/cm^2); HPLC vs non-irradiated controls; means over 3 samples
Method: The two products were dissolved at 2% by weight in the oil Miglyol 812. Approximately 10 mg of oily solution are spread over 10 cm^2 at the surface of a hollow disc made of ground glass; the amount is determined by weighing.
The films of the oily solutions are irradiated for one hour using an Oriel solar simulator (UV-A=14.2 mW/cm^2; UV-B=0.41 mW/cm^2) and then extracted with 10 ml of ethanol comprising 10% of isopropanol subjected to ultrasound for 5 min. The products are quantified by analyzing the extracts by HPLC.
HPLC conditions: column: UP5WOD-25QS, 250×4.6 mm, 5 μm, Interchrom; eluent: methanol (Comparative Example 1) and 98% methanol+2% water (Example 1); flow rate: 1 ml/min; volume injected: 10 μl; detection: diode array detector; rt (min): 5.2 (compound of the prior art) and 7.4 (compound of Example 1).
The levels of loss are determined by comparison of the amounts of product present in the irradiated samples and in the non-irradiated controls prepared simultaneously and treated in the same way (means over 3 samples; A=area/mg of solution): % loss=100×(A0−Airr)/A0

| % of disappearance (mean loss) [%] | SMILES |
| --- | --- |
| 10.0 | CC(C)COC(=O)C(=Cc1ccc(Nc2nc(Nc3ccc(C=C(C(=O)OCC(C)C)C(=O)OCC(C)C)cc3)nc(Nc3ccc(C=C(C(=O)OCC(C)C)C(=O)OCC(C)C)cc3)n2)cc1)C(=O)OCC(C)C [Compound (prior art), 2,4,6-Tris(diisobutyl 4′-aminobenzalmalonate)-s-triazine] |
| 4.6 | CCCCOC(=O)c1ccc(Nc2nc(Nc3ccc(C=C(C(=O)OCC(C)(C)C)C(=O)OCC(C)(C)C)cc3)nc(Nc3ccc(C=C(C(=O)OCC(C)(C)C)C(=O)OCC(C)(C)C)cc3)n2)cc1 [Compound of formula (1), 2,4-bis(dineopentyl 4′-aminobenzalmalonate)-6-(butyl 4″-aminobenzoate)-s-triazine] |

From patent US8323624B2, “S-triazine sunscreens bearing hindered para-aminobenzalmalonate/para-aminobenzalmalonamide and aminobenzoate/aminobenzamide substituents” (L'Oreal, priority 2004, dated 2012)
